Experimental data as given in patent US10092574B2, “Inhibitors of polynucleotide repeat-associated RNA foci and uses thereof” (VALORISATION-RECHERCHE, LIMITED PARTNERSHIP, priority 2013, dated 2018).
Entries after “also recorded” stand apart in the source; their conditions may differ.

How the values were obtained:
Format in all cases: cell-based, human
Normal or DM1 myoblasts = test: Cytotoxicity assay (Hoescht 33342 / propidium iodide, High Content Screening microscope); conditions: for cellular toxicity: 7 days (FIG. 10)
Description: The cellular toxicity of compounds 15 and 32, and their analogs was also measured using a validated cytotoxicity assay. Normal or DM1 myoblasts were treated with 20 μM of compound or DMSO. The ratio of viable cells was measured with a High Content Screening microscope in live cells treated with Hoescht 33342 (labels all cells) and propidium iodide (labels dead cells). The total number of cells was counted and the number of dead cells was subtracted to obtain the number of viable cells, which is presented as a ratio (drug-treated versus DMSO-treated cells). The percentage of dead cells was also measured using propidium iodide.
The cellular toxicity of the compounds was also measured in a dose-response assay. In this assay, normal (M908) and patient (DM1) myoblasts were treated for 7 days with compound 32 or 196 at concentrations varying from 5 to 60 μM. Cell number and cell death was quantified by High Content Screening microscope, as specified above. […] Indeed, the ratio of viable cells at 20 μM of compound 15 is 0.22 (FIG. 10), while for compound 196, an analogue of compound 15, it is above 1 at the same concentration (FIG. 14C).

[1] = test system: MBNL2, MBNL1, Sercal and TNNT2 pre-mRNAs; test: Splicing assays on the panel of MBNL2, MBNL1, Sercal and TNNT2 pre-mRNAs in DM1 myoblasts; conditions: 20 μM, 7 days (FIG. 11)
Description: Human myoblasts were obtained from the Myosix institute associated with the Association Frangaise contre les Myopathies (AFM). Five primary myoblast lines were obtained as controls, and one line from a DM1 patient with a 3.8 Kb CTG triplet amplification corresponding to approximately 1250 CTG repeats. The human myoblasts are cultivated in HAM-F10 media (SIGMA N6635) with 15% FBS, 1% chick embryo extract, and 390 ng/ml of dexamethasone. One day before adding compounds, 2×10^5 cells were plated in 100 mm plates (for CUGBP1 western blot or RT-PCR alternative splicing assay) or 2×10^4 cells/well are seeded in 12-well plates containing 12 mm round glass coverslips (for FISH to detect RNA foci). […]
For Western blots, CUGBP1 was detected with the 3B1-3D11 monoclonal antibody (mAb) (SIGMA C5112) and GAPDH was detected with the 6C5 mAb (Millipore MAB374). The enhanced chemiluminescence signal (ECL) was acquired and quantified with the ChemiDoc™ MP imaging system (Bio-Rad). […] The alternative splicing of the hnRNPA2/B1 transcript was detected with the primers 5′-[…]-3′ (SEQ ID NO:7) and 5′-[…]-3′ (SEQ ID NO:8). PCR was performed with Taq using standard conditions but the number of amplification cycles was optimized to be in the quantitative range for each gene. […]

CUGBP1 = test: Western blot of CUGBP1 protein levels in myoblasts; conditions: DM1 myoblasts, 20 μM, 7 days (FIG. 7)
Description: Human myoblasts were obtained from the Myosix institute associated with the Association Frangaise contre les Myopathies (AFM). Five primary myoblast lines were obtained as controls, and one line from a DM1 patient with a 3.8 Kb CTG triplet amplification corresponding to approximately 1250 CTG repeats. The human myoblasts are cultivated in HAM-F10 media (SIGMA N6635) with 15% FBS, 1% chick embryo extract, and 390 ng/ml of dexamethasone. One day before adding compounds, 2×10^5 cells were plated in 100 mm plates (for CUGBP1 western blot or RT-PCR alternative splicing assay) or 2×10^4 cells/well are seeded in 12-well plates containing 12 mm round glass coverslips (for FISH to detect RNA foci). One day after plating, media is replaced with fresh media containing the compounds at the desired concentration in this manner: the media is put in a screw-cap tube and heated at 37° C. The 20 mM compound stock in 100% DMSO is pipetted directly into the media and the tube is mixed well by inversion and gentle vortexing, and immediately overlayed on the cells. Pure DMSO is used for the control cells. Final concentrations on myoblasts are never higher than 0.5%. This procedure is repeated twice during the seven days of treatment, the media is thus replaced with fresh media containing compound every 2-3 days. Cells are collected or fixed for FISH after one week.
For Western blots, CUGBP1 was detected with the 3B1-3D11 monoclonal antibody (mAb) (SIGMA C5112) and GAPDH was detected with the 6C5 mAb (Millipore MAB374). The enhanced chemiluminescence signal (ECL) was acquired and quantified with the ChemiDoc™ MP imaging system (Bio-Rad). For alternative splicing assays, total RNA was collected with Trizol™ (Invitrogen), and 1 μg was used for reverse transcription with random primers with the RevertAid™ H Minus M-MuL RT (Fermentas) according to manufacturer's instructions. For MBNL2, PCR amplification was performed with primers 5′-[…]-3′ (SEQ ID NO:1) and 5′-[…]-3′ (SEQ ID NO:2). SERCA1 was amplified with primers 5′-[…]-3′ (SEQ ID NO:3) and 5′-[…]-3′ (SEQ ID NO:4). For TNNT2 (cardiac Troponin T), PCR was carried out with primers 5′-[…]-3′ (SEQ ID NO:5) and 5′-[…]-3′ (SEQ ID NO:6). The alternative splicing of the hnRNPA2/B1 transcript was detected with the primers 5′-[…]-3′ (SEQ ID NO:7) and 5′-[…]-3′ (SEQ ID NO:8). PCR was performed with Taq using standard conditions but the number of amplification cycles was optimized to be in the quantitative range for each gene. The products of PCR amplification were resolved on 3.5% agarose gels containing Gelred™ (Biotium) and images were acquired and quantified with the ChemiDoc™ MP imaging system (Bio-Rad). […]

Cc1c(C(=O)N(Cc2ccccc2)Cc2cccs2)cnn1-c1ccc(Cl)cc1 [Compound 46]
cellular toxicity (Normal or DM1 myoblasts; 20 μM): little toxicity

CCC(C(=O)Nc1ccc(S(=O)(=O)NC23CC4CC(CC(C4)C2)C3)cc1)c1ccccc1 (stereo not shown) [Compound 31]
cellular toxicity (Normal or DM1 myoblasts; 20 μM): exhibits cellular toxicity; also recorded: some toxicity

CCCN(CCC)S(=O)(=O)c1ccc(NC(=O)c2cnn(-c3ccccc3)c2C)cc1 [Compound 196, N-(4-(N,N-Dipropylsulfamoyl)phenyl)-5-methyl-1-phenyl-1H-pyrazole-4-carboxamide]
correction of mis-splicing of all the pre-mRNAs tested [1]: significantly corrects mis-splicing of all the pre-mRNAs tested | ratio of viable cells (drug-treated versus DMSO-treated) (Normal or DM1 myoblasts; 20 μM, 7 days (FIG. 10, FIG. 14C)): above 1 | main phenotype at higher concentrations (Normal or DM1 myoblasts; normal (M908) and DM1 myoblasts, 7 days, 5 to 60 μM): cytostatic effect | cytotoxicity in dose-response assay (Normal or DM1 myoblasts; normal (M908) and DM1 myoblasts, 7 days, concentration of 20 μM and below (FIGS. 14A-D)): little cytotoxicity

CCCc1c(C(=O)N2CCC(c3ccccc3OC)CC2)cnn1-c1ccccc1 [Compound 43]
reduction of CUGBP1 levels (CUGBP1): 45%
